This note sets out measurements from ChEMBL document CHEMBL1146771, “Identification of purine inhibitors of phosphodiesterase 7 (PDE7)” (Bioorg Med Chem Lett, 2004).

For one experiment, the target named is Phosphodiesterase 1 (Bos taurus, UniProt Q01061+P14100). Kind of experiment: Inhibitory concentration against phosphodiesterase 1 from bovine, calmodulin. It is filed as protein assay.
Experiment [1] concerns the target T1, cGMP-dependent 3',5'-cyclic phosphodiesterase (Rattus norvegicus, UniProt Q01062).
T1 sequence (Q01062 whole entry): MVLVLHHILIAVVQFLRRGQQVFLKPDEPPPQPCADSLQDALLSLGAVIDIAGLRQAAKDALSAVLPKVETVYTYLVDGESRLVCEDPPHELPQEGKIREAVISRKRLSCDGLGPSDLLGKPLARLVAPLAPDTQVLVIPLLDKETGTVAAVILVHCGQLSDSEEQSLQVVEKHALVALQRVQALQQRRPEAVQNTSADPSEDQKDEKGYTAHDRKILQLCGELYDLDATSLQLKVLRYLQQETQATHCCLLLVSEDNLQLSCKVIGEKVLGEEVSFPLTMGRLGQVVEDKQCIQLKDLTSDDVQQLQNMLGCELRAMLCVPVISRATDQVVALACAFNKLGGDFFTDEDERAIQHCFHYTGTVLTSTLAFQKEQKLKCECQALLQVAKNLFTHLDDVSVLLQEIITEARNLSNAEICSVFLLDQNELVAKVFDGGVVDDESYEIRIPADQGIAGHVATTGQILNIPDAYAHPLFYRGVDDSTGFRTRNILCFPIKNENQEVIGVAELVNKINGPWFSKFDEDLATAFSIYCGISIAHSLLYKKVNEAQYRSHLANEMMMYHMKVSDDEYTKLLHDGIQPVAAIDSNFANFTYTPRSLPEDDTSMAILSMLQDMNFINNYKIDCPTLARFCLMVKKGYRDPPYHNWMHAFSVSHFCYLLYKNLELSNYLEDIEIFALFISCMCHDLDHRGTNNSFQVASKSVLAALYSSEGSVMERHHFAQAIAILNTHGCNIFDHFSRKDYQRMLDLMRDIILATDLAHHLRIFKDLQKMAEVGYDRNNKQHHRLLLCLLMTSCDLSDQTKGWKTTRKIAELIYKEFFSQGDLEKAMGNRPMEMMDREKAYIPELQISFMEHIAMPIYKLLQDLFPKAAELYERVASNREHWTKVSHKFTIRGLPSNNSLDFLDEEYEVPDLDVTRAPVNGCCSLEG
Kind of experiment: Inhibitory concentration against phosphodiesterase 2 from rat kidney.

A short description of experiment [2]: Inhibition of Phosphodiesterase 7.
The target in experiment [3] is cGMP-specific 3',5'-cyclic phosphodiesterase (Homo sapiens, UniProt O76074). As to the kind of experiment: Inhibitory concentration against phosphodiesterase 5 (PDE5) from human platelet.
The target in a further experiment is Phosphodiesterase 3 (Homo sapiens, UniProt Q14432+Q13370). Kind of experiment: Inhibitory concentration against phosphodiesterase 3 from human platelet.
Experiment [4] can be described thus: Inhibitory concentration ratio of PDE4 to that of PDE7.
Experiment [5] in a line: Inhibitory concentration ratio of PDE2 to that of PDE7.
A short description of experiment [6]: Inhibitory concentration ratio of PDE3 to that of PDE7.
Experiment [7] can be described thus: Inhibitory concentration ratio of PDE1 to that of PDE7.
Experiment [8] is described as follows: Inhibitory concentration ratio of PDE5 to that of PDE7.
Experiment [9] is filed under the species Rattus norvegicus. As to the kind of experiment: Inhibition of Phosphodiesterase 7 at 1 uM.
The species entered for experiment [10] is Rattus norvegicus.

In the case of `COc1nc2c([nH]1)c(=O)n(C)c(=O)n2CC(C)C`, the IC50 was 1.8 µM against Phosphodiesterase 1; more than 10 µM in [1]; more than 10 µM in [2]; 3.02 µM in experiment [3]; more than 10 µM at Phosphodiesterase 3.

`CCOC(=O)c1sc(Nc2nc(N3CCc4cc(OC)c(OC)cc4C3)c3c(ncn3CC)n2)nc1C`: the Ratio in [4] worked out at 1.3; in [5] it was 3.6; in experiment [6] it was 17; in experiment [7] it was 2.8; in experiment [8] it was 4.6. Besides, the IC50 in experiment [2] was 0.15 µM.

In the case of `COc1cc(-c2ccc(=O)[nH]n2)ccc1OC(F)F` [ZARDAVERINE], the IC50 against Phosphodiesterase 1 is more than 10 µM; in experiment [1] it was more than 10 µM; in experiment [2], more than 10 µM; in [3] it was more than 10 µM; at Phosphodiesterase 3, 0.11 µM.

Turning to `COc1ccc(C2CNC(=O)C2)cc1OC1CCCC1` (stereo not given) [ROLIPRAM], the IC50 (against Phosphodiesterase 1; in [1]; in [2]; on Phosphodiesterase 3) was more than 10 µM in each case.

Take `CCCc1nn(C)c2c(=O)[nH]c(-c3cc(S(=O)(=O)N4CCN(C)CC4)ccc3OCC)nc12`: the IC50 in experiment [1] and in experiment [2] was more than 10 µM each time.

Compound `CCOC(=O)c1sc(Nc2nc(NCc3ccc4c(c3)OCO4)c3c(ncn3CC)n2)nc1C` gave an IC50 in experiment [2] of 0.11 µM. The figures for the Ratio in experiment [6], in experiment [7] and in [8] were 11, 19 and 0.38, respectively.

For `CCOC(=O)c1sc(Nc2nc(NCc3ccc(OC)c(OC)c3)c3c(ncn3CC)n2)nc1C`, the half-inhibitory concentration (IC50) against Phosphodiesterase 1 came out at 0.22 µM; in experiment [1], 1.7 µM; in experiment [2] it was 0.15 µM; in [3] it was 0.27 µM; at Phosphodiesterase 3, 0.58 µM.

`CCOC(=O)c1sc(Nc2nc(NCc3ccc(S(N)(=O)=O)cc3)c3ncn(CC)c3n2)nc1C`: the Ratio is 16 in experiment [4]; 45 in experiment [5]; more than 5000 in experiment [6]; 200 in experiment [7]; 13 in [8]. Also, it took 0.01 µM to reach half-maximal inhibition in experiment [2] (IC50).

In the experiment filed under Rattus norvegicus [9], `CCn1cnc2nc(Nc3nc(C)cs3)nc(NCc3ccc(OC)c(OC)c3)c21` had an inhibition of 15%.

As to `CCOC(=O)c1sc(Nc2nc(NCc3ccc(S(C)(=O)=O)cc3)c3c(ncn3CC)n2)nc1C`, the Ratio in experiment [4] was 22; in [5], 25; in experiment [6], 130; in [7], 18; in experiment [8], 0.9. This compound also registered an IC50 in experiment [2] of 0.055 µM.

For `CCOC(=O)c1sc(Nc2nc(NCc3ccc(S(N)(=O)=O)cc3)c3c(ncn3CC)n2)nc1C`, the IC50 in [2] turned out to be 0.011 µM.

As to `CCOC(=O)c1sc(Nc2nc(NS(=O)(=O)c3ccc(S(C)(=O)=O)cc3)c3ncn(CC)c3n2)nc1C`, the figures for the Ratio in experiment [4], in experiment [6] and in experiment [8] were 0.046, 0.11 and 0.55, respectively. Moreover, the IC50 in [2] was 1.6 µM.

On to `CCOC(=O)c1sc(Nc2nc(NCc3ccc(OCc4ccccc4)c(OC)c3)c3c(ncn3CC)n2)nc1C`, for which the Ratio stood at 3.8 in experiment [4]; 2.3 in experiment [5]; 2.5 in experiment [6]; 1.3 in [7]; 2.9 in experiment [8]. Besides, half-maximal inhibition in experiment [2] (IC50) was put at 0.94 µM.

In the case of `Nc1ncnc2c1ncn2[C@@H]1O[C@@H]2COP(=O)(O)O[C@H]2[C@H]1O`, in the experiment listed under Rattus norvegicus [10], the Km was 0.2 µM.

In turn, `CCOC(=O)c1sc(Nc2nc(OCc3ccc(S(C)(=O)=O)cc3)c3ncn(CC)c3n2)nc1C` gave an IC50 in experiment [2] of 0.37 µM. Further, the Ratio in [6] was found to be 21; in experiment [8], 4.1.

Turning to `CCOC(=O)c1sc(Nc2nc(NCc3cc(OC)c(OC)c(OC)c3)c3c(ncn3CC)n2)nc1C`, the Ratio in experiment [4] is 24; in experiment [5], 14; in [6], 33; in experiment [7] it was 1.7; in experiment [8], 15. Moreover, in [2], the IC50 came to 0.1 µM.

For `CCn1cnc2nc(Nc3nc(C)c(C(=O)Nc4ccccc4)s3)nc(NCc3ccc(OC)c(OC)c3)c21`, the Ratio in [4] turned out to be 7; in experiment [5] it was 11; in experiment [6] it was 12; in experiment [7] it was 12; in experiment [8], 1.1. The same compound came in with an IC50 in [2] of 0.82 µM.

As to `CN(C(=O)CCCOc1ccc2[nH]c(=O)ccc2c1)C1CCCCC1` [CILOSTAMIDE], the IC50 at Phosphodiesterase 1 was more than 10 µM; in experiment [1] it was more than 10 µM; in experiment [2], more than 10 µM; in experiment [3] it was 7.15 µM.

As a reminder, the IC50 is the concentration that inhibits the measured activity by half. Low readings indicate greater potency in that assay, high ones weaker potency in that assay. The term inhibition denotes the change of the read-out against control, counted positive when it falls. High values mean a strong effect, low ones a weak effect. Usually Km stands for the concentration of substrate that gives half-maximal velocity.
